Three compounds from patent publication US6875769B2, “Substituted6,6-hetero-bicyclicderivatives” (Pfizer Inc., priority 1997, dated 2005) can be followed below.

The term melting point denotes the temperature, or range, at which the solid turns liquid. In turn, `CCC(CC)Nc1cc(C)nc2c1CCC(=O)N2c1c(C)cc(C)cc1C` [Example 12, 5-(1-Ethyl-propylamino)-7-methyl-1-(2,4,6-trimethyl-phenyl)-3,4-dihydro-1H-[1,8]naphthyridin-2-one] registered a melting point of 124 to 126 °C.

In turn, `CCC(CC)Oc1cc(C)nc2c1c(Cl)nc(=O)n2-c1c(C)cc(C)cc1C` [Example 17, 4-Chloro-5-(1-ethyl-propoxy)-7-methyl-1-(2,4,6-trimethyl-phenyl)-1H-pyrido[2,3-d]pyrimidin-2-one] returned a melting point of 125 to 127 °C.

`CCC(CC)Oc1cc(C)nc2c1c(=O)[nH]c(=O)n2-c1c(C)cc(C)cc1C` [Example 18, 5-(1-Ethyl-propoxy)-7-methyl-1-(2,4,6-trimethyl-phenyl)-1H-pyrido[2,3-d]pyrimidine-2,4-dione] had a melting point of 105 to 107 °C.
